In patent US20200253877A1, “GEMCABENE, PHARMACEUTICALLY ACCEPTABLE SALTS THEREOF, COMPOSITIONS THEREOF AND METHODS OF USE THEREFOR” (NEUROBO PHARMACEUTICALS, INC., priority 2018, published 2020):

Key:
[1] = Effect of steady-state gemcabene 600 mg on single-dose pharmacokinetics of ON 1/35 (ethinyl estradiol/norethindrone) in healthy female subjects; format: in vivo, human; settings: 600 mg daily at steady state; single dose ON 1/35
Procedure: (§1) An open-label, two-sequence, cross-over study to assess the steady-state effects of gemcabene calcium on the single-dose pharmacokinetics (PK) of oral contraceptive tablets in healthy female subjects was conducted with 300 mg tablets containing gemcabene calcium salt hydrate Crystal Form 1 having PSD90 of 52 μm (film-coated Tablet F).
(§2) The population for this study was generally healthy, adult female subjects of childbearing potential (≥18 to ≤35 years of age). This population supports the overall objective of the study to evaluate the effect of 600 mg of gemcabene calcium salt hydrate Crystal Form 1 having PSD90 of 52 μm at steady-state on the PK of a single dose of ON 1/35 (Ortho Novum 1/35; combined ethinyl estradiol/norethindrone oral contraceptive). The primary objective of this study was to assess the effect of daily 600 mg of gemcabene calcium salt hydrate Crystal Form 1 having PSD90 of 52 μm at steady-state on the pharmacokinetics (PK) of ON 1/35. The secondary objectives of this study were to assess the safety and tolerability of daily gemcabene 600 mg in combination with a single-dose ON 1/35 and to assess the steady-state PK of 600 mg of gemcabene calcium salt hydrate Crystal Form 1 having PSD90 of 52 μm (film-coated Tablet F×2). […]

[2] = Aqueous solubility of gemcabene calcium salt forms over 24 hours (HPLC concentration, XRPD form); format: physicochemical; settings: approximately 25° C.
Procedure: To each vial, approximately 3 mL to 4 mL water were added and the samples were mixed at ambient temperature (approximately 25° C.) for approximately 24 hours. […] From each vial, samples of the slurries were taken after 1, 4, and 24 hours, which were separated by centrifugation. The solids were separated by centrifugation and analyzed by XRPD for solid form and by HPLC for concentration.

[3] = Tablet dissolution in pH 5.0 potassium acetate, USP apparatus 2, UV/Vis fiber optic quantitation (216 nm to 230 nm); format: physicochemical; settings: film-coated Tablets D, F2, C3, ES (average n=6)
Procedure: Tablet's gemcabene dissolution profiles were evaluated using an ultra-violet/visible (uv/vis) light absorption methodology in which dissolved gemcabene in the dissolution media was directly measured inside the dissolution vessel. This method of analysis allowed for real-time measurement of gemcabene dissolution at multiple, closely spaced sampling intervals. This method provides a higher resolution dissolution profile than could be obtained with the HPLC analysis methodology used in Example 13 and allowed for detection of differences in dissolution characteristics between the various gemcabene calcium polymorphs. […] FIG. 56 compares the gemcabene dissolution profiles generated using these two methodologies and Table 28 reports the gemcabene dissolution profiles and % RSD for n=6 dissolution testing conducted with both methods of analysis.

[4] = human, in vivo
Procedure: as §1
The population for this study was generally healthy, adult female subjects of childbearing potential (≥18 to ≤35 years of age). This population supports the overall objective of the study to evaluate the effect of 600 mg of gemcabene calcium salt hydrate Crystal Form 1 having PSD90 of 52 μm at steady-state on the PK of a single dose of ON 1/35 (Ortho Novum 1/35; combined ethinyl estradiol/norethindrone oral contraceptive). The primary objective of this study was to assess the effect of daily 600 mg of gemcabene calcium salt hydrate Crystal Form 1 having PSD90 of 52 μm at steady-state on the pharmacokinetics (PK) of ON 1/35. The secondary objectives of this study were to assess the safety and tolerability of daily gemcabene 600 mg in combination with a single-dose ON 1/35 and to assess the steady-state PK of 600 mg of gemcabene calcium salt hydrate Crystal Form 1 having PSD90 of 52 μm (film-coated Tablet F×2).
Throughout the study, 2 (12.5%) subjects in Treatment A; 4 (26.7%) subjects during gemcabene alone treatment of Treatment B, and 3 (20%) subjects during gemcabene with ON 1/35 treatment of Treatment B, had treatment-emergent adverse events (TEAEs). […] All TEAEs were considered to be mild or moderate in severity.

[5] = Steady-state plasma gemcabene pharmacokinetics (600 mg daily) in healthy female subjects; format: in vivo, human
Procedure: as §1, §2

[6] = Steady-state gemcabene pharmacokinetics in familial hypercholesterolemia patients (300, 600, 900 mg/day); format: in vivo, human; settings: for Tlast: after 28 daily oral doses (film-coated Tablet D), FH patients, median
Procedure: Additional (trough) samples were collected pre-dose on Day 14, Day 42, Day 70, and at the Early Termination Visit (if applicable). Plasma from these samples were analyzed for gemcabene concentrations and the data used for PK analysis. […] PK parameter estimates were derived by standard non-compartmental analysis methods using a validated installation of Phoenix® WinNonlin® version 6.4. The actual sampling times were used in the PK parameter calculations. All plasma concentrations reported as missing were treated as missing. […] The following gemcabene PK parameters were calculated for each patient from the plasma concentration-time data: AUClast and AUC(0-24) were calculated by numeric integration using the trapezoidal rule with linear up and log down interpolation. […] The individual patient and gemcabene concentration-time data are listed using the number of significant digits or decimal places provided by the bioanalytical lab and nominal sample times, and summarized descriptively in tabular formats by dose level, and visit (for trough samples).

[7] = 300-900 mg/day, dose proportionality
[8] = dose range 300 mg/day to 900 mg/day

CC(C)(CCCCOCCCCC(C)(C)C(=O)O)C(=O)O.[Ca] [6-(5-Carboxy-5-methyl-hexyloxy)-2,2-dimethylhexanoic acid calcium]
drug-drug interaction with ethinyl estradiol and norethindrone [1]: mild drug-drug interaction
change in polymorphic form during the test period (XRPD) ([2]; slurry in water, 24 hours): no change in polymorphic form
change in concentration (HPLC) during the experiment ([2]; slurry in water, sampled 1, 4, 24 hours): small increase
solubility at 1 h ([2]; thermodynamic from solid, water, 1 h, read-out: Conc. (aqueous solubility)): 96.2 mg/mL
solubility at 4 h ([2]; thermodynamic from solid, water, 4 h, read-out: Conc. (aqueous solubility)): 98.3 mg/mL
solubility at 24 h ([2]; thermodynamic from solid, water, 24 h, read-out: Conc. (aqueous solubility)): 99.5 mg/mL
Form (XRPD) of solid in water slurry ([2]; water, 1 h): Form 1
Form (XRPD) of solid in water slurry ([2]; water, 4 h): Form 1
Form (XRPD) of solid in water slurry ([2]; water, 24 h): Form 1
gemcabene dissolution rate of film-coated tablets, compared among polymorphs [3]: intermediate profile

CC(C)(CCCCOCCCCC(C)(C)C(=O)O)C(=O)O [gemcabene, 6-(5-carboxy-5-methyl-hexyloxy)-2,2-dimethyl-hexanoic acid]
subjects with a drug-related TEAE (constipation) ([4]; female): 1 subject
serious adverse events (SAEs) [4]: no serious adverse events
tolerability [4]: well tolerated
mean Cmin [5]: 102.68 µg/mL
Tlast ([6]; 300 mg/day, n = 8): 25.2 h
Tlast ([6]; 600 mg/day, n = 8): 24.6 h
Tlast ([6]; 900 mg/day, n = 7): 23.8 h
upper limit of the 95% CI of slope, log AUClast vs log dose [6, 7]: 0.9993
upper limit of the 95% CI of slope, log Cmax vs log dose [6, 7]: 0.9767
time to attain steady state ([6]; daily dosing, individual trough concentrations): ≤ 14 days
AUC(0-24) dose proportionality [6, 8]: increased dose proportionally
Cmax dose proportionality [6, 8]: slightly less than dose proportional
